The values that follow come from patent US20240002407A1, “THIENOPYRIMIDINONE DERIVATIVES” (Hoffmann-La Roche Inc., priority 2021, published 2024).

The test system of this test is mutant HTT protein (mHTT). Put plainly: Homogeneous Time Resolved Fluorescence (HTRF) assay for HTT lowering in GENEAe020-A cells. It is filed as cell-based. The following applies: reduction of mHTT; Huntington patient human cells (GENEAe020-A cell line); 48 hours incubation; mean from three replicates. The procedure:
The HTRF assay was adapted from Weiss et al. (Analytical Biochemistry Volume 395, Issue 1, 1 Dec. 2009, Pages 8-15 and Analytical Biochemistry Volume 410, 2011, Pages 304-306) to cells from GENEAe020-A cell line (https://hpscreg.eu/cell-line/GENEAe020-A).
Compounds were tested for the effect of mutant HTT levels in Huntington patient human cells (GENEAe020-A cell line) using Homogeneous Time Resolved Fluorescence (HTRF) directed towards mutant HTT protein (mHTT). The GENEAe020-A cell line was derived by Genea Biocells from human blastocysts of HD donors. After assessing viability, cells were plated into 384 well collagen coated plates in growth media. Once cells adhered, media was removed and test compounds dissolved in DMSO were diluted with buffer solution and added to the adherent cells. Controls included experiments with no cells, DMSO with no compound, and Hsp90 inhibitor control. Cells were incubated with compounds and controls for 48 hours. Then, the cells were lysed and transferred to an assay plate containing HTRF labeled monoclonal antibodies developed by Paul Patterson (Ko et al., Brain Research Bulletin, Volume 56, Numbers 3 and 4, 2001, Pages 319-329) which recognize specific areas of the HTT protein. The terbium labeled “donor” antibody (2B7) binds to the N-terminus of the HTT protein and the Alexa488 labeled “acceptor” antibody (MW1) is specific for the polyglutamine region of the protein. Binding of the acceptor labeled antibody is more efficient for the extended polyglutamine repeats of mutant HTT protein which translates into a signal boost which enables the specific measurement of mutant HTT protein level. The HTRF donor and acceptor detection reagents were incubated with the cell lysate and the ratio between the signals of the two fluorophores is indicative of the relative quantities of mHTT.
In general terms: Time-resolved FRET reads energy transfer from a long-lived donor to a nearby acceptor.

The structures appear in SMILES notation.

For the molecule `Cc1cn2nc(-c3nc4sc(OC5CCNCC5)cc4c(=O)[nH]3)cc(C)c2n1` [Example 5, 2-(2,8-Dimethylimidazo[1,2-b]pyridazin-6-yl)-6-(4-piperidyloxy)-3H-thieno[2,3-d]pyrimidin-4-one], the EC50 stood at 0.282 µM. Under `Cc1cn2nc(-c3nc4sc([C@H]5CCNC[C@H]5F)cc4c(=O)[nH]3)cc(C)c2n1` (racemic) [Example 2, 2-(2,8-Dimethylimidazo[1,2-b]pyridazin-6-yl)-6-[(3SR,4SR)-3-fluoro-4-piperidyl]-3H-thieno[2,3-d]pyrimidin-4-one] stands 0.205 µM; under `Cc1cn2nc(-c3nc4sc(C5CCNCC5)cc4c(=O)[nH]3)cc(C)c2n1` [Example 1, 2-(2,8-Dimethylimidazo[1,2-b]pyridazin-6-yl)-6-(4-piperidyl)-3H-thieno[2,3-d]pyrimidin-4-one hydrogen chloride], 0.05 µM. Under `Cc1cn2nc(-c3nc4sc(C5CCNCC5(F)F)cc4c(=O)[nH]3)cc(C)c2n1` (stereo not drawn) [Example 3, 6-(3,3-Difluoro-4-piperidyl)-2-(2,8-dimethylimidazo[1,2-b]pyridazin-6-yl)-3H-thieno[2,3-d]pyrimidin-4-one] stands 2.27 µM; under `Cc1cn2nc(-c3nc4sc(OC5CNC5)cc4c(=O)[nH]3)cc(C)c2n1` [Example 4, 6-(Azetidin-3-yloxy)-2-(2,8-dimethylimidazo[1,2-b]pyridazin-6-yl)-3H-thieno[2,3-d]pyrimidin-4-one], 4.7 µM; under `Cc1cn2nc(-c3nc4sc(C5CCNC6(CC6)C5)cc4c(=O)[nH]3)cc(C)c2n1` (stereo not drawn) [Example 6, 6-(4-Azaspiro[2.5]octan-7-yl)-2-(2,8-dimethylimidazo[1,2-b]pyridazin-6-yl)-3H-thieno[2,3-d]pyrimidin-4-one], 0.203 µM.

For orientation: EC50 means the concentration at which the effect is half-maximal. A lower EC50 goes with greater potency.
